# “Also recorded” adds a separate entry of the source. Positions of bridges follow the written chain, without caps; N, C: chain ends. Residues, ends and D or L forms follow the SMILES beside them.
# What was measured:
# human TRPA1 [1] = biological target: T1, human TRPA1 (Homo sapiens, UniProt O75762); assay: Inhibition of AITC-induced currents through human TRPA1 in X. laevis oocytes (electrophysiology); format: cell-based; details: for residual current (inhibited currents to): human TRPA1, toxin 10 μM, 100 μM AITC, normalized to response without ProTx-I (100%), n = 3–6 oocytes
# T1 construct: expressed in transfected cells; host or cells: Xenopus laevis oocytes (mRNA injection)
# Procedure: (§1) Currents through human and rat TRPA1 [21] were recorded in X. laevis oocytes expressing these channels. Oocyte isolation, mRNA injection, and experimental recordings have been described previously. All solutions were prepared on the day of the experiment using calcium-free ND-96 containing 96 mM NaCl, 2 mM KCl, 1 mM MgCl2 , and 10 mM HEPES at pH 7.4. Currents were stimulated by the application 100 μM AITC (Sigma-Aldrich). The solution was manually added to the perfusion chamber, and the currents were recorded using voltage ramps as reported in [22]. For each oocyte, we sequentially recorded three responses to AITC application, as well as the subsequent leakage current in the presence of a specific TRPA1 inhibitor: HC030031 (Sigma-Aldrich). The first response amplitude was used to normalize the data obtained on different oocytes. To induce the second response, AITC was applied together with ProTx-I or HC030031. The amplitude of this response was measured, normalized, averaged across different oocytes, and used to plot dose-response curves. Dose-response curves were approximated by the Hill equation: […]
# where nH is the Hill coefficient.
# Statistical data processing was performed using GraphPad Prism 9.0. To compare current amplitudes at specific toxin concentrations, either a two-tailed Student’s t-test or one-way ANOVA and Dunnett’s multiple comparison test was used. Dose-response curve parameters were compared using the F-test.
# Fig. 4 Effect of ProTx-I variants on AITC-induced outward currents through TRPA1 in X. laevis oocytes. (A) Average normalized current traces for the human TRPA1 channel in the absence and presence of the selective antagonist HC030031 or ProTx-I. Data are presented as mean ± SEM (lines and shaded areas, respectively, n = 3–6 oocytes). Compound application periods are shown by solid black bars above the traces. […] (C) Dose-response curves for recombinant rProTx-I at human (hTRPA1) and rat (rTRPA1) ion channels. […] Data in B and C (mean ± SEM, n = 3–6 oocytes) are normalized to the response recorded without ProTx-I (100%)
# rat TRPA1 = biological target: T2, rat TRPA1 (Rattus norvegicus, UniProt Q6RI86); assay: Inhibition of AITC-induced currents through rat TRPA1 in X. laevis oocytes (electrophysiology); format: cell-based
# T2 construct: expressed in transfected cells; host or cells: Xenopus laevis oocytes (mRNA injection)
# Procedure: as §1
# where nH is the Hill coefficient. […]
# Fig. 4 Effect of ProTx-I variants on AITC-induced outward currents through TRPA1 in X. laevis oocytes. […] Data in B and C (mean ± SEM, n = 3–6 oocytes) are normalized to the response recorded without ProTx-I (100%)
# [2] = tested on: voltage-gated sodium (NaV), potassium, and calcium channels; details: cited from earlier work
# Description: Due to its action at the NaV1.7, NaV1.8, and TRPA1 channels involved in pain perception and propagation, ProTx-I may be used as a model for the development of next-generation analgesics. ProTx-I consists of 35 amino acid residues, with three disulfide bonds forming an inhibitor cystine knot (ICK) motif, which challenges its heterologous production. An efficient Pro ... || Spider knottins include membrane-active toxins that affect the activation or inactivation of sodium (NaV), potassium, and calcium voltage-gated channels (so-called gating modifier toxins). The ProTx-I toxin (Protoxin-I or β/ω-theraphotoxin-Tp1a, 35 aa) is a membrane-active knottin of the Peruvian green velvet tarantula Thrixopelma pruriens. […] Among the ProTx-I targets, NaV1.7, NaV1.8, and TRPA1 channels are promising therapeutic targets for the treatment of pain and neu ...
# human TRPA1 [3] = biological target: T1, human TRPA1; details: cited from earlier work
# Description: In the present study, we compared the functional activity of Met-ProTx-I and ProTx-I, with the latter being produced by hydrolysis of 6His-Met-ProTx-I, at the human TRPA1 channel expressed in X. laevis oocytes.
# T1 sequence (O75762 whole entry): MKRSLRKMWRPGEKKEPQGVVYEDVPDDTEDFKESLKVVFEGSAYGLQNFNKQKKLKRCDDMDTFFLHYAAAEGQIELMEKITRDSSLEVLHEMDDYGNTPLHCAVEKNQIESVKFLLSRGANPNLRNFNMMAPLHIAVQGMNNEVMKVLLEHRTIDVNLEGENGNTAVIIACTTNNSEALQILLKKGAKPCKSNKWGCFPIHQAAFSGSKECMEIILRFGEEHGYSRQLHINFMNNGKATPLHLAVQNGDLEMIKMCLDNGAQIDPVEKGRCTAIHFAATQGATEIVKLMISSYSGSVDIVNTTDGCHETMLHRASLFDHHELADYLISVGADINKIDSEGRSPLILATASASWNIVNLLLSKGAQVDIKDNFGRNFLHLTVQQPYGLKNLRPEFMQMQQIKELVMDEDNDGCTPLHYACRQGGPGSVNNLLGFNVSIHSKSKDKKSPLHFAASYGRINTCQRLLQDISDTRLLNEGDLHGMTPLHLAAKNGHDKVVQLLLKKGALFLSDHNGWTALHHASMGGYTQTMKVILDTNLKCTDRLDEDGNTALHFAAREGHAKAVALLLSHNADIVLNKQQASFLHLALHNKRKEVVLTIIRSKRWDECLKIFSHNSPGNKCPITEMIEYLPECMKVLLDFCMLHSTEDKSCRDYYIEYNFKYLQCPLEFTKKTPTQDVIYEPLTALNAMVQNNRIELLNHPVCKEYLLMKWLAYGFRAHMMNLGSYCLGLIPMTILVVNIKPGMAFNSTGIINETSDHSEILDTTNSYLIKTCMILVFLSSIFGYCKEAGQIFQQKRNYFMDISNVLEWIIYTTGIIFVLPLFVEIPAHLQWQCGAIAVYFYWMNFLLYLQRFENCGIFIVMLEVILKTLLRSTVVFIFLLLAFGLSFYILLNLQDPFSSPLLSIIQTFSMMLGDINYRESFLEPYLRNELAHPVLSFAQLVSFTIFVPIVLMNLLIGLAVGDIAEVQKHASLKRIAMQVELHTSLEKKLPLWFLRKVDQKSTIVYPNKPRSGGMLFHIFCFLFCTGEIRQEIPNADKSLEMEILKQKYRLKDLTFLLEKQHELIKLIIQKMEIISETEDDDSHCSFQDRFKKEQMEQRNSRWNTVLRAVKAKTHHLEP
# T2 sequence (Q6RI86 whole entry): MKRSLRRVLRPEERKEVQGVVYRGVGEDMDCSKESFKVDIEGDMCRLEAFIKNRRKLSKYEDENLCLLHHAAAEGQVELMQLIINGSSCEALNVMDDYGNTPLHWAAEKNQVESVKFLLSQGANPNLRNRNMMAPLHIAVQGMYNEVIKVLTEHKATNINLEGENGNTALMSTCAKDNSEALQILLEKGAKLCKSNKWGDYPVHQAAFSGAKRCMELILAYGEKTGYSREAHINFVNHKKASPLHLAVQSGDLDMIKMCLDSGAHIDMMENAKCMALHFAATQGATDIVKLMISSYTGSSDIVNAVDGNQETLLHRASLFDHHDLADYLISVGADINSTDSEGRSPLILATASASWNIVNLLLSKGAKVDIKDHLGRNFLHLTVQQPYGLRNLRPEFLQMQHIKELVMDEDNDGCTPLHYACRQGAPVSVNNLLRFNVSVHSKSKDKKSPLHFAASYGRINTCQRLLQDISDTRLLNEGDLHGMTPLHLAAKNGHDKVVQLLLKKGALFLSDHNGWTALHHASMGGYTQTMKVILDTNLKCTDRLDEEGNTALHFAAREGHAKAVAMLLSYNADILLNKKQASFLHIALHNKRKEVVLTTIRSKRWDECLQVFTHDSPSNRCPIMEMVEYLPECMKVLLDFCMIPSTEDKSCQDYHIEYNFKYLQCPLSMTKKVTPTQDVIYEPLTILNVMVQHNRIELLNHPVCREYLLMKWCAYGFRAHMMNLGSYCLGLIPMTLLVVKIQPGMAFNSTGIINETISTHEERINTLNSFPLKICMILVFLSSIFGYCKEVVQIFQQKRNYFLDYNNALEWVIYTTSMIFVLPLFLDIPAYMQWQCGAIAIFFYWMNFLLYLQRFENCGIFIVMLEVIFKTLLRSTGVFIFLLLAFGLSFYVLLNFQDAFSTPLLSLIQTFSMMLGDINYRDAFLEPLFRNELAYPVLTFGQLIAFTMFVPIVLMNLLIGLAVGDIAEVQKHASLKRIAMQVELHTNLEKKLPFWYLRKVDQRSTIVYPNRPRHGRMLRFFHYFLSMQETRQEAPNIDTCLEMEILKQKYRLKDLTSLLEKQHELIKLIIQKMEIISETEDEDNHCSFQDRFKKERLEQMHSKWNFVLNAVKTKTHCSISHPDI
compound,measurement,setting,value
CC(C)C[C@@H]1NC(=O)[C@H](Cc2c[nH]c3ccccc23)NC(=O)[C@H](Cc2ccc(O)cc2)NC(=O)[C@H](CCCNC(=N)N)NC(=O)[C@@H](NC(=O)[C@@H](N)CCC(=O)O)CSSC[C@@H]2NC(=O)[C@@H]3CSSC[C@@H](C(=O)N[C@H](C(=O)N[C@@H](Cc4c[nH]c5ccccc45)C(=O)N[C@@H](CC(=O)O)C(=O)NCC(=O)N[C@H](C(=O)N[C@@H](Cc4ccccc4)C(=O)N[C@@H](CO)C(=O)O)[C@@H](C)O)C(C)C)NC(=O)[C@H](Cc4c[nH]c5ccccc45)NC(=O)CNC(=O)[C@H](Cc4c[nH]cn4)NC(=O)[C@H](CCCNC(=N)N)NC(=O)[C@H](CCCNC(=N)N)NC(=O)[C@H](CO)NC(=O)[C@H](CSSC[C@H](NC(=O)CNC(=O)CNC1=O)C(=O)N[C@@H](CO)C(=O)N[C@@H](C)C(=O)NCC(=O)N[C@@H](CCC(N)=O)C(=O)N[C@@H]([C@@H](C)O)C(=O)N3)NC(=O)[C@H](C(C)C)NC(=O)[C@H](CC(C)C)NC(=O)[C@H](Cc1c[nH]cn1)NC(=O)[C@H](CCCCN)NC2=O [ProTx-I (Smartox)],IC50,human TRPA1 [1],410 ± 160 nM
same,residual current (inhibited currents to),human TRPA1 [1],~ 5%
"CSCC[C@H](N)C(=O)N[C@@H](CCC(=O)O)C(=O)N[C@H]1CSSC[C@@H]2NC(=O)[C@@H]3CSSC[C@@H](C(=O)N[C@H](C(=O)N[C@@H](Cc4c[nH]c5ccccc45)C(=O)N[C@@H](CC(=O)O)C(=O)NCC(=O)N[C@H](C(=O)N[C@@H](Cc4ccccc4)C(=O)N[C@@H](CO)C(=O)O)[C@@H](C)O)C(C)C)NC(=O)[C@H](Cc4c[nH]c5ccccc45)NC(=O)CNC(=O)[C@H](Cc4c[nH]cn4)NC(=O)[C@H](CCCNC(=N)N)NC(=O)[C@H](CCCNC(=N)N)NC(=O)[C@H](CO)NC(=O)[C@H](CSSC[C@H](NC(=O)CNC(=O)CNC(=O)[C@H](CC(C)C)NC(=O)[C@H](Cc4c[nH]c5ccccc45)NC(=O)[C@H](Cc4ccc(O)cc4)NC(=O)[C@H](CCCNC(=N)N)NC1=O)C(=O)N[C@@H](CO)C(=O)N[C@@H](C)C(=O)NCC(=O)N[C@@H](CCC(N)=O)C(=O)N[C@@H]([C@@H](C)O)C(=O)N3)NC(=O)[C@H](C(C)C)NC(=O)[C@H](CC(C)C)NC(=O)[C@H](Cc1c[nH]cn1)NC(=O)[C@H](CCCCN)NC2=O [Met-ProTx-I] (H-MECRYWLGGCSAGQTCCKHLVCSRRHGWCVWDGTFS-OH; disulfide 3-17, 10-22, 16-29)",IC50,human TRPA1 [1],8900 ± 7000 nM
same,residual current (inhibited currents to),human TRPA1 [1],~ 60%
CC(C)c1ccc(NC(=O)Cn2cnc3c2c(=O)n(C)c(=O)n3C)cc1 [HC030031],inhibition of current through TRPA1 (in words),human TRPA1 [1],This effect was similar to that of 50 μM HC0300301
ProTx-I,"species selectivity, rat versus human TRPA1 (in words)","rat TRPA1; rat versus human TRPA1, difference in IC50 p = 0.006 (F-test)",different activities relative to human and rat TRPA1 channels
same,inhibition of voltage-gated channels (in words),[2],"inhibits voltage-gated sodium (NaV), potassium, and calcium channels; also recorded: effectively inhibits a number of voltage-gated channels"
same,"species selectivity, human versus mouse TRPA1 (in words)",human TRPA1 [3],higher activity at the human channel
CC(C)C[C@@H]1NC(=O)[C@H](Cc2c[nH]c3ccccc23)NC(=O)[C@H](Cc2ccc(O)cc2)NC(=O)[C@H](CCCNC(=N)N)NC(=O)[C@@H](NC(=O)[C@@H](N)CCC(=O)O)CSSC[C@@H]2NC(=O)[C@@H]3CSSC[C@@H](C(=O)N[C@H](C(=O)N[C@@H](Cc4c[nH]c5ccccc45)C(=O)N[C@@H](CC(=O)O)C(=O)NCC(=O)N[C@H](C(=O)N[C@@H](Cc4ccccc4)C(=O)N[C@@H](CO)C(=O)O)[C@@H](C)O)C(C)C)NC(=O)[C@H](Cc4c[nH]c5ccccc45)NC(=O)CNC(=O)[C@H](Cc4c[nH]cn4)NC(=O)[C@H](CCCNC(=N)N)NC(=O)[C@H](CCCNC(=N)N)NC(=O)[C@H](CO)NC(=O)[C@H](CSSC[C@H](NC(=O)CNC(=O)CNC1=O)C(=O)N[C@@H](CO)C(=O)N[C@@H](C)C(=O)NCC(=O)N[C@@H](CCC(N)=O)C(=O)N[C@@H]([C@@H](C)O)C(=O)N3)NC(=O)[C@H](C(C)C)NC(=O)[C@H](CC(C)C)NC(=O)[C@H](Cc1c[nH]cn1)NC(=O)[C@H](CCCCN)NC2=O [rProTx-I],IC50,"rat TRPA1; rTRPA1 in X. laevis oocytes, outward currents induced by 100 μM AITC, calcium-free ND-96, pH 7.4, voltage ramps, Hill equation fit, n = 3–6 oocytes, rat vs human p = 0.006 (F-test)",250 ± 70 nM
same,IC50,human TRPA1 [1],840 ± 190 nM
same,residual current (inhibited currents to),human TRPA1 [1],~ 5%
